In patent publication US8552063B2, “Composition for accelerated production of collagen” (E.S.L.I. Limited, priority 2008, dated 2013):

System: human dermal fibroblasts
Assay: Collagen I secretion, CODTA combined with SDA (Example 3)
Assay type: cell-based
Settings: in combination with Stearidonic Acid base; relative to diluent (vehicle) alone
Protocol: This example provides outline results of the effect of two test active ingredient mixes on collagen I secretion by human dermal fibroblasts. Human dermal fibroblasts (originally derived from explant cultures of normal human breast dermis) were cultured under standard conditions. Two test combinations of actives (CODTA's when combined with SDA) were initially screened for cytotoxicity before testing.
Collagen I levels were determined and are expressed as a percentage of the levels observed in samples from cultures treated with diluent (vehicle) alone.
Pepsin digests of both cell culture medium, and the cell culture surface (plate) from each treated culture well were analysed.

| Compound | Percentage increase in collagen I secretion |
| --- | --- |
| CCCCC\C=C/C=C/C=C/CCCCCCC(=O)O [Calendic Acid, Calendic acid] | 187% |
| CCCCC\C=C/C=C/C=C\CCCCCCC(=O)O [Jacaric Acid, Jacaric acid] | 278% |
